# Measurements as given in PubChem BioAssay AID1117361 (Southern Research Institute, 2015).
# Target: Protein Tat (Human immunodeficiency virus type 1 group M subtype B (isolate HXB2)) (UniProt P04608)
# Assay: HIV-1 Tat–TAR interaction blockers – biochemical, fluorescence polarization, FAM-labeled TAR RNA, counter-screen for Vif-APOBEC3G degradation inhibitor project, dose response (AID 1117361)
# Details: Tat-TAR RNA binding
# Sequence of Protein Tat (Human immunodeficiency virus type 1 group M subtype B (isolate HXB2)) (P04608 whole entry, looked up): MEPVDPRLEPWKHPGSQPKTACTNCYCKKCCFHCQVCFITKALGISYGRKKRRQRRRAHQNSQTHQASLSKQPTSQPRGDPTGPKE
row,Structure (SMILES),IC50 [µM]
1,O=C(CN1CCN(S(=O)(=O)c2ccc(Cl)s2)CC1)NCc1ccc(Cl)cc1,23.2
2,CC(=C/c1ccco1)/C=N/NC(=O)Cc1cccn1C,10.7
3,CN(CCC#N)C(=O)COC(=O)c1c2c(nc3ccccc13)/C(=C\c1ccco1)CC2,79.8
4,O=C(Nc1ccc(F)cc1)C(c1ccccc1)N1CCN(S(=O)(=O)c2ccc3ccccc3c2)CC1 (configuration not stated),1.23
5,Cc1nn(-c2ccccn2)c2c1C(=O)C(Br)CC2 (configuration not stated),8.82
6,O=C(NC1CC1)c1cc(-c2ccco2)nc2ccccc12,9.27
7,O=[n+]1c2c(n([O-])c3cc(Cl)ccc31)CCCC2,42.9
8,CCOC(=O)c1cc2cc(F)ccc2nc1C,6.24
9,O=c1c2cc(N3CCOCC3)ccc2[nH]c(=S)n1Cc1ccco1,38.7
10,O=C(O)C[C@@H]1C(=O)O[C@@H]2C(COC(=O)c3cc(O)c(O)c(O)c3)O[C@@H](OC(=O)c3cc(O)c(O)c(O)c3)[C@@H](OC(=O)c3cc(O)c(O)c4c3[C@H]1[C@H](O)C(=O)O4)[C@H]2OC(=O)c1cc(O)c(O)c(O)c1 (some centres not stated),0.556
11,NC(=S)N=Nc1c(O)cc(O)c2[nH]c(=O)ccc12,37.2
12,CC1CCC/C(=C\Nc2ccc(C(=O)O)c(O)c2)C1=O (configuration not stated),5.37
13,Cc1cc(-c2cc(-c3ccc(Cl)cc3)nc(N)c2C#N)co1,83.6
14,Cc1c(N=C2C=C(Br)C(=O)C(Br)=C2)c(=O)n(-c2ccccc2)n1C,11
15,CN(C(=S)Nc1cccnc1)c1ccc(O)cc1,27
16,CCOC(=O)CSc1nncc2ccc(OC)c(OC)c12,56.6
17,O=[N+]([O-])c1cc(/C=N\Nc2nccs2)ccc1O,5.68
18,O=[N+]([O-])c1ccccc1S(=O)(=O)NC1CCCC1,45
19,O=C(NC(=S)Nc1cccc(S(=O)(=O)NC2=NCCC2)c1)c1cc(-c2ccco2)nc2ccccc12,8.04
20,CCC1=NN2C(=N)/C(=C\c3ccc(SCc4ccco4)o3)C(=O)N=C2S1,63.3
21,CC(C(=O)O)N1C(=O)/C(=C/C=C/c2ccco2)SC1=S (configuration not stated),1.54
22,O=C(Nc1ccc(Br)cn1)c1coc(=O)c(Br)c1,79.5
23,CCOc1cc(N2CCOCC2)c(OCC)cc1NS(=O)(=O)c1ccc(Cl)s1,14.9

row,Structure (SMILES),IC50 [µM]
1,COc1ccc(NC(=O)c2cc(-c3ccco3)nc3ccccc23)cc1S(=O)(=O)N1CCOCC1,19.3
2,O=C(NN1C(=O)/C(=C/C=C/c2ccco2)SC1=S)c1ccccc1O,4.46
3,Cc1cc(C)cc(Nc2ccc(C(=O)O)cc2N)c1,47.1
4,O=C1NC(=S)S/C1=C\C=C\c1ccc([N+](=O)[O-])o1,2.76
5,CN1C(=O)/C(=C/c2cccn2-c2ccc3ccccc3c2)C(=O)NC1=S,44.5
6,C=C(C)C(=O)Nc1cccc(C2=NOC3(C2)C[C@H](C(N)=O)N(C(=O)C(c2ccccc2)c2ccccc2)C3)c1 (some centres not stated),31.7
7,NS(=O)(=O)c1ccc(N/N=C/c2ccc(O)c(O)c2O)c([N+](=O)[O-])c1,7.44
8,COC(=O)c1cnn2c(C(F)(F)F)cc(-c3ccco3)nc12,68.1
9,COc1cccc(CNC(=O)CCNS(=O)(=O)c2cccs2)c1,9.05
10,O=C(Cc1cccs1)N/N=C/C=C/c1ccco1,8.22
11,Cc1cc(C(=O)CSc2nnnn2C)c(C)n1CCc1ccc(Cl)cc1,84.6
12,Cc1ccc(-c2c3c([nH]c(=S)c2C#N)CCCC3)o1,21.2
13,O=S(=O)(O)c1cc(O)c(N=Nc2ccc(O)cc2O)c2ccccc12,51.3
14,NC(=O)c1c(NC(=O)c2ccc(S(=O)(=O)N3CCOCC3)cc2)sc2c1CCCCC2,58.3
15,Cc1ccc(C2C(C#N)=C(N)Oc3c2oc(CO)cc3=O)o1 (configuration not stated),5.77
16,O=C(NCc1ccccc1)c1ccc2nc(-c3ccco3)c(-c3ccco3)nc2c1,4.55
17,Cc1cccc(-n2c(Cc3cc(=O)[nH]c(=O)[nH]3)nnc2SCC(=O)NCC2CCCO2)c1 (configuration not stated),58.5
18,Cc1c(C(=O)O)cccc1-n1c(C)cc(/C=N/Nc2ccc([N+](=O)[O-])cn2)c1C,64
19,Cc1nc2c(=O)[nH]c(=S)[nH]c2[nH]c1=O,13.2
20,CC(=O)c1sc(C(=O)O)c(-c2ccco2)c1-c1ccco1,4.86
21,COc1cc(OC)c2c(O)c3c(c(-c4c5c(c(O)c6c(OC)cc(OC)cc46)CO[C@@H](C)[C@H]5O)c2c1)[C@H](O)[C@H](C)OC3,30.8
22,O=C(CCN1CCN(c2ccccc2)CC1)N/N=C/c1ccc(O)c(O)c1O,4.87
23,CCOC(=O)c1cnn2c(N)c(C#N)nnc12,45.7

row,Structure (SMILES),IC50 [µM]
1,C/C(=N\Nc1ccc([N+](=O)[O-])cc1[N+](=O)[O-])c1cc2c(ccc3ccccc32)oc1=O,15.6
2,O=C1C2C3CCCC3=C3CCCC3C2C(=O)N1c1ccccc1 (configuration not stated),8.28
3,CCc1nc2oc3cc(OC)ccc3c(=O)c2c(=O)n1Cc1ccco1,24
4,Cc1ccc(/C=C/C(=O)Nc2cccc(S(=O)(=O)N3CCOCC3)c2)o1,89.1
5,O=C(CN1C(=O)NC2(CCCCCCC2)C1=O)NCc1cccs1,36.5
6,CCOC(=O)c1c(N)sc(=S)c2c1CCC2,52
7,C/C(=N\Nc1ccc(Cl)c(C(=O)O)c1)c1ccc[nH]1,21.4
8,N#Cc1c(NC(=O)CSc2ncnc3sccc23)oc(-c2ccco2)c1-c1ccco1,2.52
9,CCOc1cccc(OCC)c2c(C)[n+](CC3CCCO3)c(C)c1-2 (configuration not stated),4.16
10,O=C(NCc1ccccn1)c1ccc2nc(-c3ccco3)c(-c3ccco3)nc2c1,4.75
11,CCn1c(SC(C)C(=O)O)nc2sc3c(c2c1=O)CCC3 (configuration not stated),70.4
12,CC(=O)c1ccc(S(=O)(=O)Nc2cccc(-n3cnnn3)c2)cc1,74.2
13,CCOc1ccc(-n2c(Cc3cc(=O)[nH]c(=O)[nH]3)nnc2SC(C)C(=O)OC)cc1 (configuration not stated),92.9
14,COc1ccccc1C1C=C(c2ccc(C)cc2)Nc2nnnn21 (configuration not stated),84.4
15,O=C(NCCc1ccccc1)c1ccc2nc(-c3ccco3)c(-c3ccco3)nc2c1,33.1
16,NC(CO)C(=O)NNCc1ccc(O)c(O)c1O (configuration not stated),8.84
17,O=C(COC(=O)/C=C/c1ccco1)Nc1ncc(C(F)(F)F)cc1Cl,20.2
18,O=S(=O)(c1ccc2nc(-c3ccco3)c(-c3ccco3)nc2c1)N1CCOCC1,44.9
19,COC1=C(N)C(=O)c2nc(-c3nc(C(=O)O)c(C)c(-c4ccc(OC)c(OC)c4O)c3N)ccc2C1=O,42.1
20,Cc1cc(C)cc(Nc2ncc3c(n2)CC(c2ccco2)CC3=O)c1 (configuration not stated),42.7
21,Cc1ccc([C@@H]2C3COCC=C3C(C#N)=C(N)C2(C#N)C#N)o1 (some centres not stated),4.05
22,Cc1cccc(C)c1NC(=O)CSc1nnc(-c2ccco2)c(-c2ccco2)n1,6.43
23,O=C(CC1C(=O)NCCN1Cc1ccc(F)cc1)NCCN1CCCc2ccccc21 (configuration not stated),22.1

row,Structure (SMILES),IC50 [µM]
1,CCN(CC)c1ccc(NC(=O)CCS(=O)(=O)c2ccc(Br)cc2)c(C)c1,46.5
2,CC(C)C1Nc2ccc(C(=O)O)cc2C2C=CCC21 (configuration not stated),4.93
3,COC(=O)c1ccc(C(=O)OC)c(NC(=O)Cc2cccs2)c1,64.8
4,N#Cc1c(-c2ccco2)c2c([nH]c1=S)CCCC2,8.34
5,CNc1ccc(Br)cc(C(=O)/C=C/c2ccc(OC)cc2)c1=O,9.15
6,COc1cccc2c1NC(C(=O)O)C1CC=CC21 (configuration not stated),1.87
7,COc1ccc(C2=NCC(=O)N(CC(=O)NCc3ccco3)c3sc4c(c32)CCCC4)cc1OC,82.3
8,COc1cc(/C=C2/C(=O)c3cccc([N+](=O)[O-])c3C2=O)c(Br)cc1O,96.5
9,COc1ccc(-c2cc(C(=O)N/N=C/c3ccc(OC)c(COCC(F)(F)C(F)F)c3)c3ccccc3n2)c(OC)c1,99.4
10,Oc1ccc(N=Cc2ccc(OCc3ccccc3)cc2)cc1,47.5
11,c1ccc2c(c1)CCCN2Cc1nnc2n1CCCCC2,4.29
12,O=C1CCC/C(=N\NC(=O)c2ccc(COc3cccc4cccnc34)cc2)C1,82.3
13,CC(N=Cc1cccc(O)c1O)c1ccccc1 (configuration not stated),6.96
14,COc1ccc(NC(=O)N2c3ccc(OC)cc3C(C)=CC2(C)C)cc1,3.29
15,CC1=CC(=Nc2c(C)n(C)n(-c3ccccc3)c2=O)C=CC1=O,14.5
16,Cc1cc(C(=O)CCl)c(C)n1-c1c(C)n(C)n(-c2ccccc2)c1=O,20.3
17,N=C1S/C(=C\c2ccco2)C(=O)N1c1ccc2c(c1)OCO2,18.4
18,O=C(CSc1nc2ccccc2n1CCc1ccccc1)c1ccc(O)c(O)c1,8.81
19,O=C1CC(=O)N(Cc2ccco2)C(=O)N1,14.6
20,CCCCC(=O)NC(=S)Nc1cc(C(=O)O)ccc1Cl,51.2
21,Cc1ccc(Cl)cc1N1CCN(C(=O)COc2ccc3c(c2)CCC3)CC1,57.2
22,O=C(O)c1ccc2c(c1)C1C=CCC1C(c1ccncc1)N2 (configuration not stated),6.37
23,COC/C=C/C1=CC2=CC(=O)C(C)(OC(=O)CCC(=O)OC)C(=O)C2=CO1 (configuration not stated),8.1

row,Structure (SMILES),IC50 [µM]
1,CCC(C)C(NC(=O)[C@@H](NC(=O)c1ccccc1F)C(C)C)C(=O)OC (some centres not stated),30.7
2,CN(C)S(=O)(=O)c1cccc(NC(=S)N/N=C/c2ccc(O)c(O)c2O)c1,23.2
3,COC(=O)CSc1nnc(CNC(=O)Cc2ccccc2)n1C,1.43
4,Cc1cc([N+](=O)[O-])cc2c1NC(c1ccccn1)C1CC=CC21 (configuration not stated),49.1
5,COc1cc(OC)c2c(c1O)OC(c1ccccc1)CC2=O (configuration not stated),65.4
6,NS(=O)(=O)c1ccc2c(c1)C1C=CCC1C(C1CC=CCC1)N2 (configuration not stated),9.98
7,Cc1nc2cc(-c3ccsc3-n3c(C)ccc3C)[nH]n2c(=O)c1Cl,2.17
8,CCNC(=O)COC(=O)c1cc(-c2ccco2)nc2ccccc12,8.09
9,COC(=O)C1=C(C)NC(=O)/C1=C\c1cc(C)n(-c2ccccc2C)c1C,28.7
10,O=C1CCCC(O)=C1N=Nc1ccc(C(=O)O)cc1,6.47
11,CC1CCN(S(=O)(=O)c2ccc(C(=O)NCc3ccc4c(c3)OCO4)cc2)CC1,95.7
12,CCc1c(C)sc(NC(=O)c2cc(-c3ccco3)on2)c1C#N,52.4
13,COC(=O)C1=C(C)NC(=O)/C1=C\c1ccco1,39.7
14,CC1(OC(=O)C2CCCC2)C(=O)C=C2C=C(c3ccsc3)OC=C2C1=O (configuration not stated),45.4
15,Cc1ccc(S(=O)(=O)Cn2nnnc2C(CC(C)C)N2CCN(C)CC2)cc1 (configuration not stated),22.6
16,O=C1NC(=S)N(c2ccccc2)C(=O)/C1=C/c1ccco1,16.2
17,NC1=NC(=O)/C(=C\c2ccco2)S1,6.09
18,CNc1ccc(Br)cc(C(=O)/C=C/c2cc(OC)ccc2OC)c1=O,9.75
19,O=C1C(Cl)=C(N2CCOCC2)C(=O)N1c1ccccc1,16.6
20,CC1Cc2ccccc2N1Cc1cc(=O)n2ccsc2n1 (configuration not stated),10
